Measurements as given in patent publication US20260092054A1, “FUSED RING COMPOUND AND PHARMACEUTICAL CONTAINING SAME” (KAKEN PHARMACEUTICAL CO., LTD., priority 2022, published 2026).

How the values were obtained:
human STAT6/pIL-4Rα = target: T1, human STAT6/pIL-4Rα (Homo sapiens, UniProt P42226); assay: Binding inhibitory activity between human STAT6/pIL-4Rα by fluorescence polarization method; conditions: rhSTAT6 (123-658) / FAM-pIL-4Rα peptide
T1 construct: histidine tag
T1 sequence (P42226 123-658): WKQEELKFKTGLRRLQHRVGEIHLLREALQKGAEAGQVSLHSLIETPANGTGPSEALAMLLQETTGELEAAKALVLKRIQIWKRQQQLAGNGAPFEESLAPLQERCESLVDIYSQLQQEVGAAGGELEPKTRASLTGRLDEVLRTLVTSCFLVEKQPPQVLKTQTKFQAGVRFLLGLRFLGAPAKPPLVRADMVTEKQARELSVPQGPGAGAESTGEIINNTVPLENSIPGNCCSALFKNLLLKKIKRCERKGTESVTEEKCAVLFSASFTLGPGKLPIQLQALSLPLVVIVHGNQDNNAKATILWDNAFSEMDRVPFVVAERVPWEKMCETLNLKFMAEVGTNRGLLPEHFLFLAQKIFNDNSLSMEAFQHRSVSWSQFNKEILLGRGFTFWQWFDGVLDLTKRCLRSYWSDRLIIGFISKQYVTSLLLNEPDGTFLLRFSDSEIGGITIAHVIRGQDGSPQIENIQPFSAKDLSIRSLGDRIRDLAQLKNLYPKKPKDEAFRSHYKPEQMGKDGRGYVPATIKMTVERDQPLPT
Experimental: Test Example 1: Measurement of Binding Inhibitory Activity Between Human STAT6/pIL-p 4Rα by Fluorescence Polarization Method
1) Construction of Histidine Tag-Fused Recombinant Human STAT6 (123 to 658 Region)
A histidine tag-fused recombinant human STAT6 (hereinafter referred to as rhSTAT6) expression vector [plasmid DNA in which a nucleic acid sequence containing human STAT6 (123-658 region) was inserted into a pET28a(+) vector (Novagen)] was inserted into E. coli, and the cells were cultured overnight under culturing conditions at 17° C. with IPTG treatment. After disrupting E. coli with a high-pressure homogenizer (EmulsiFlex-C3, manufactured by AVESTIN, Inc.), affinity purification using Ni-NTA agarose (manufactured by Qiagen), cation exchange chromatography using HiTrap® CM-FF (manufactured by GE healthcare), and gel filtration chromatography using Superdex® 200 10/300GL (manufactured by GE healthcare) were performed to obtain rhSTAT6.
2) Measurement of Binding Inhibitory Activity Between Human STAT6/pIL-4Rα by Fluorescence Polarization Method
A DMSO solution of the example compound was diluted with an assay buffer [for example, a buffer containing 50 mmol/L NaCl, 10 mmol/L HEPES (pH 7.0), 1 mmol/L DTT, 1 mmol/L EDTA, and 0.01 vol % NP-40, and the like] to prepare a compound-added solution. The DMSO concentration in the compound addition solution was adjusted to 1 or 2 vol %. 10 μL of the compound addition solution and an assay buffer containing 1 or 2 vol % DMSO were added to each well of a 384-well plate. 5 μL of an assay buffer solution containing rhSTAT6 (rhSTAT6 concentration: for example, 1 μmol/L) or an assay buffer was added to each well of a 384-well plate. After leaving the plate at room temperature for 30 minutes in the dark, 5 μL of an assay buffer solution (FAM-pIL-4Rp concentration: for example, 80 nmol/L) containing FAM-labeled phosphorylated IL-4Rα peptide (sequence: FAM-Ala-pTyr-Lys-Pro-Phe-Gln-Asp-Leu-IIe-NH2) (hereinafter, FAM-pIL-4Rp) or an assay buffer containing 2 vol % DMSO was added to each well of the 384-well plate. The mixture was left to stand at room temperature for 30 minutes in the dark, and then centrifuged (200 g, 1 minute, room temperature). Fluorescence polarization values were measured using Infinite (registered trademark) F500 (manufactured by Tecan Japan Co., Ltd.) (Excitation: 485 nm, Emission: 535 nm). The inhibition rate of each Example compound was calculated according to the following formula using the fluorescence polarization value (A) when rhSTAT6 and FAM-pIL-4Rp were added without adding the Example compound, the fluorescence polarization value (B) when FAM-pIL-4Rp was added without adding the Example compound and rhSTAT6, and the fluorescence polarization value (C) when each Example compound, rhSTAT6, and FAM-pIL-4Rp were added.
In the evaluation of each example compound, the 50% inhibitory concentration (IC50) of each example compound was calculated from a linear function equation of a straight line connecting two points sandwiching 50%.

human STAT6 = assay: Human STAT6 dependent reporter activity (IL-4 stimulated STAT6 reporter assay using STAT6-HEK293 cells); type: cell-based; conditions: Homo sapiens, IL-4 stimulation, luciferase activity, read-out: Inhibition rate (%); for inhibition at 0.1 µM: compound 0.1 μmol/L; for inhibition at 1 µM: compound 1 μmol/L
Experimental: Test Example 2: Measurement of Human STAT6 Dependent Reporter Activity
1) Construction of Human STAT6-HEK293 Cells
HEK 293 cells maintenance cultured by [Penicillin-Streptomycin (Thermo Fisher Scientific) and FBS, 1 vol % and 10 vol % respectively added to DMEM high glucose (Thermo Fisher Scientific)](manufactured by ATCC) were collected, and suspended in 10 mL of 0.5% BSA/PBS. 1×10^6 cells were collected, the supernatant was removed by centrifuging, and the cells were suspended in 100 μL of Nucleofector solution V (manufactured by Lonza K.K.). 2 μg of STAT6 vector [plasmid DNAs incorporating human STAT6 sequences in pcDNA3.1 (Invitrogen)] was added, and the STAT6 vector was introduced into the HEK293 cells using the program Q-001 initially registered in the Nucleofector®2b. A cell line (STAT6-HEK293 cells) consistently expressing STAT6 was acquired by selecting resistant cells in a medium containing Geneticin® (manufactured by Thermo Fisher Scientific). 2) STAT6 reporter assay using STAT6-HEK293 cells 3×10^6 STAT6-HEK293 cells maintained in assay medium [culture medium supplemented with 1 vol % Geneticin®] were harvested and seeded in a 10 cm dish. 3 μg of a STAT6 reporter vector [plasmid in which a sequence containing a STAT6 binding sequence and a C/EBP binding sequence in tandem was incorporated into pGL4.27 (manufactured by Promega Corporation)] and 9 μL of FuGENE® HD transfection reagent (manufactured by Promega Corporation) were added to 500 μL of Opti-MEM® (manufactured by Thermo Fisher Scientific) to prepare transfection solutions. The transfection solution was vortexed and left to stand for about 5 minutes, then added dropwise to the STAT6-HEK293 cells, which were then cultured overnight in a C02 incubator to produce STAT6 reporter cells.
The prepared STAT6 reporter cells were seeded on B&W isoplate-96 TC (PerkinElmer Japan Co., Ltd.) (3×10^4 cells/50 μL/well) and cultured overnight in a C02 incubator (37° C., 5% C02). 50 μL of assay medium was added to each well instead of the STAT6 reporter cells. The compound addition solution was prepared by diluting the DMSO solution of the example compound 250-fold using the assay medium. 20 μL of compound addition solution or 0.4 vol % DMSO-containing assay medium was added to the plate, and the plate was then cultured in a CO2 incubator for 1 hour. 10 μL of 80 ng/mL human IL-4 solution (Peprotech) or assay medium was added to each well, and the cells were cultured in a CO2 incubator for 6 hours.
STAT6 reporter activity was measured using the Bright-Glo® Luciferase Assay System (Promega). 100 μL of Bright-Glo® reagent was added to each well, and luciferase activity was measured using Infinite® F500. The inhibition rate of each Example compound was calculated by the following formula using the luciferase activity value (G) when no Example compound was added and stimulation with IL-4 was performed, the luciferase activity value (H) when no Example compound was added and stimulation with IL-4 was not performed, and the luciferase activity value (I) when each Example compound was treated and stimulation with IL-4 was performed.
Note that the viable cell rate under each condition was 70% or more, and it was determined that the luciferase activity inhibitory activity of each example compound was appropriately evaluated.

COCCn1c(-c2ccc(-n3c(C)nn(C)c3=O)cc2)cc2cc(C(F)(F)F)cc(C(=O)Nc3cccc(C(=O)Nc4ccn(C)n4)c3)c21 [Ex. 117]
IC50 (human STAT6/pIL-4Rα): 320 nM

C/C(=C\C(=O)N[C@H](C(=O)N1CCC[C@H]1C(=O)N(C)c1ccccc1)C(C)(C)C)c1ccc(OP(=O)(O)O)cc1 [PM-301H, reference compound]
IC50 (human STAT6/pIL-4Rα): 270 nM

CCn1c(-c2ccc(-n3c(C)nn(C)c3=O)cc2)cc2cc(C(F)(F)F)cc(C(=O)Nc3cc[nH]n3)c21 [Ex. 105]
IC50 (human STAT6/pIL-4Rα): 780 nM

COCCn1c(-c2ccc(N(C)C(C)=O)cc2)nc2cc(CCC(C)(C)OC)cc(C(=O)Nc3cccc(C(N)=O)c3)c21 [Ex. 205]
IC50 (human STAT6/pIL-4Rα): 8440 nM

C#Cc1cc(C(=O)Nc2cccc(C(N)=O)c2)c2c(c1)nc(-c1ccc(N(C)C(C)=O)cc1)n2CCOC [Ex. 206]
IC50 (human STAT6/pIL-4Rα): 3620 nM

COCCn1c(-c2ccc(-n3c(C)nn(C)c3=O)cc2)cc2cc(C(F)(F)F)cc(C(=O)Nc3cccc(C(=O)O)n3)c21 [Ex. 184]
IC50 (human STAT6/pIL-4Rα): 270 nM

COCCn1c(-c2ccc(-n3c(C)nn(C)c3=O)cc2)cc2cc(C(F)(F)F)cc(C(=O)Nc3nncs3)c21 [Ex. 79]
IC50 (human STAT6/pIL-4Rα): 1900 nM

C/C=C/c1cc(C(=O)Nc2cccc(C(N)=O)c2)c2c(c1)nc(-c1ccc(N(C)C(C)=O)cc1)n2CCOC [Ex. 203]
IC50 (human STAT6/pIL-4Rα): 7060 nM

CCn1c(-c2ccc(-n3c(C)nn(C)c3=O)cc2)cc2cc(C(F)(F)F)cc(C(=O)Nc3ccc(CNC(C)=O)cc3)c21 [Ex. 116]
IC50 (human STAT6/pIL-4Rα): 2070 nM

C=Cc1cc(C(=O)Nc2cccc(C(N)=O)c2)c2c(c1)nc(-c1ccc(N(C)C(C)=O)cc1)n2CCOC [Ex. 207]
IC50 (human STAT6/pIL-4Rα): 2950 nM

COCCn1c(-c2ccc3c(c2)CCOC3C(N)=O)nc2cc(C(F)(F)F)cc(C(=O)Nc3cccc(C(N)=O)c3)c21 (stereo not drawn) [Ex. 36]
IC50 (human STAT6/pIL-4Rα): 400 nM

CCn1c(-c2ccc(-c3ncon3)cc2)nc2cc(Br)cc(C(=O)Nc3cccc(C(N)=O)c3)c21 [Ex. 7]
inhibition at 0.1 µM (human STAT6): 1%
inhibition at 1 µM (human STAT6): 56%

CCn1c(-c2ccc(N3C(=O)C(C)CC3C)cc2)nc2cc(C(F)(F)F)cc(C(=O)Nc3cccc(C(N)=O)c3F)c21 (single isomer, unassigned) [Ex. 220]
IC50 (human STAT6/pIL-4Rα): 9600 nM

CCn1c(-c2ccc(-n3c(C)nn(C)c3=O)cc2)cc2cc(C(F)(F)F)cc(C(=O)Nc3ccc(CC(=O)NC)cc3)c21 [Ex. 104]
IC50 (human STAT6/pIL-4Rα): 730 nM

COCCn1c(-c2ccc(N(C)C(C)=O)cc2)nc2cc(-c3ccccc3)cc(C(=O)Nc3cccc(C(N)=O)c3)c21 [Ex. 209]
IC50 (human STAT6/pIL-4Rα): 6600 nM

COCCn1c(-c2ccc(N(C)C(C)=O)cc2)nc2cc(CC(C)C)cc(C(=O)Nc3cccc(C(N)=O)c3)c21 [Ex. 211]
IC50 (human STAT6/pIL-4Rα): 4980 nM

CCn1c(-c2ccc(N3CCCCC3=O)cc2)cc2cc(C(F)(F)F)cc(C(=O)Nc3ccc(F)c(C(N)=O)c3)c21 [Ex. 71]
IC50 (human STAT6/pIL-4Rα): 1180 nM

COCCn1c(-c2ccc3c(c2)CCOC3C(=O)O)nc2cc(C(F)(F)F)cc(C(=O)Nc3cccc(C(N)=O)c3)c21 (stereo not drawn) [Ex. 29]
IC50 (human STAT6/pIL-4Rα): 840 nM

COCCn1c(-c2ccc(-n3c(C)nn(C)c3=O)cc2)cc2cc(C(F)(F)F)cc(C(=O)Nc3cccc(C(=O)O)c3)c21 [Ex. 162]
IC50 (human STAT6/pIL-4Rα): 300 nM

COCCn1c(-c2ccc(-n3c(C)nn(C)c3=O)cc2)cc2cc(C(F)(F)F)cc(C(=O)Nc3cccc(NS(C)(=O)=O)n3)c21 [Ex. 217]
IC50 (human STAT6/pIL-4Rα): 590 nM

CCn1c(-c2ccc3c(c2)CCOC3C(N)=O)cc2ccnc(C(=O)Nc3ccc(F)c(C(N)=O)c3)c21 (stereo not drawn) [Ex. 28]
inhibition at 0.1 µM (human STAT6): 43%
inhibition at 1 µM (human STAT6): 93%

CCn1c(-c2ccc(-n3cnn(C)c3=O)cn2)cc2cc(C(F)(F)F)cc(C(=O)Nc3ccc(F)c(C(N)=O)c3)c21 [Ex. 64]
IC50 (human STAT6/pIL-4Rα): 2620 nM

CCn1c(-c2ccc(-n3c(C)nn(C)c3=O)cc2)cc2cc(F)cc(C(=O)Nc3cccc(C(N)=O)c3F)c21 [Ex. 60]
IC50 (human STAT6/pIL-4Rα): 470 nM

Cc1nn(C)c(=O)n1-c1ccc(-c2cc3ccnc(C(=O)Nc4cccc(C(N)=O)c4F)c3n2CC2CC2)cc1 [Ex. 89]
IC50 (human STAT6/pIL-4Rα): 940 nM

CCn1c(-c2ccc(N3C(=O)C(C)CC3C)cc2)nc2cc(C(F)(F)F)cc(C(=O)Nc3cccc(C(N)=O)c3)c21 (single isomer, unassigned) [Ex. 13]
IC50 (human STAT6/pIL-4Rα): 9090 nM

CCn1c(-c2ccc(-n3c(C)nn(C)c3=O)cc2)cc2cc(C(F)(F)F)nc(C(=O)Nc3cccc(C(N)=O)c3)c21 [Ex. 96]
IC50 (human STAT6/pIL-4Rα): 1890 nM

COCCn1c(-c2ccc(N(C)C(C)=O)cc2)nc2cc(C3CCCC3)cc(C(=O)Nc3cccc(C(N)=O)c3)c21 [Ex. 212]
IC50 (human STAT6/pIL-4Rα): 9030 nM

CCn1c(-c2ccc(-n3c(C)nn(C)c3=O)nn2)cc2cc(C(F)(F)F)cc(C(=O)Nc3ccc(F)c(C(N)=O)c3)c21 [Ex. 128]
IC50 (human STAT6/pIL-4Rα): 570 nM

COCCn1c(-c2ccc(-n3c(C)nn(C)c3=O)cc2)cc2cc(C(F)(F)F)cc(C(=O)Nc3cccnn3)c21 [Ex. 87]
IC50 (human STAT6/pIL-4Rα): 1000 nM

CCn1c(-c2ccc(-n3cnn(C)c3=O)cc2)c(Cl)c2cc(C(F)(F)F)cc(C(=O)Nc3cccc(C(N)=O)c3)c21 [Ex. 141]
IC50 (human STAT6/pIL-4Rα): 910 nM

COCCn1c(-c2ccc(N(C)C(C)=O)cc2)nc2cc(C3CC3)cc(C(=O)Nc3cccc(C(N)=O)c3)c21 [Ex. 208]
IC50 (human STAT6/pIL-4Rα): 2080 nM
